Holding throughout (assay): Melanoma cytotoxicity assay (resazurin)
Assay type in all cases: cell-based

Data set [1] concerns SK-MEL-28. Conditions: for SK-MEL-28 (% viability): human, 24 h; for SK-MEL-28 (% inhibition): SK-MEL-28 melanoma cells, 24 hours with compound, resazurin, concentration not given. Here is the method:
(§1) Cytotoxicity Assay: Melanoma cells (˜4000 cells in each well) were incubated in a 96 well plates at 37° C. in 5% CO2 for 24 hours. Compounds were added in triplicates and the plate was further incubated for 24 hours. DMSO and dacarbazine were added as technical and positive controls respectively. Next day resazurin was added and the plate was further incubated for 6 hours followed by reading the plate at 544 nm (excitation) and 590 nm (emission) using BMG Labtech Fluostar Optima plate reader. IC50 values were determined by using Graphpad Prism.
(§2) On day 1, the cell line trypsinized and centrifuged to form cell pellet. The pellet was diluted in media, then counted using Countess automated cell counter. Approximately 4000 cells (198 uL) per well plated in […]. A control well of 200 uL growth media was also prepared. Wells closest to plate perimeter were filled with 200 uL PBS to prevent inner well evaporation. The 96 well plates are incubated in 37° C. incubator at 5% CO2 for 24 hours.
(§3) On day 2, compounds were added (in triplicate) along with DMSO/Dacarbazine controls (2 uL) added to bring wells to volume of 200 μL. The 96 well plates are incubated in 37° C. incubator at 5% CO2 for 24 hours.
(§4) On day 3, 40 μL of 0.15 mg/ml reszurin solution added to wells. Samples were placed in a 37° C. incubator at 5% CO2 for 6 hours. Excitation and emission for fluorescence measured at 544 nm and 590 nm using BMG Labtech Fluostar Optima plate reader
(§5) Percent viability determined by taking average of each triplicate well fluorescence and subtracting GM well reading to remove the background signal. This difference is then divided by the average of the negative control (DMSO) wells to determine percent viability.
(§6) IC50s were determined by using cereal dilution of compound to determine viability. Viabilities and concentration of cells are analyzed in Graphpad Prism by creating sigmoidal curve graph, which will determine the IC50 concentration.
(§7) We analyzed the ability of the thiazole-androstane derivatives to inhibit growth in various melanoma cell lines. The growth inhibition against melanoma cell lines of various compound is shown below in Tables 19 and 20. Inhibition results are reported as the IC50 concentration in μM of the indicated compound or as the percent viability […] of the indicated compound. NA=not available.
On the technique in general: Resazurin is reduced to fluorescent resorufin, in cell work by metabolically active cells.

In data set [2] the test system is SK-MEL-5. Conditions: SK-MEL-5 melanoma cells, 24 hours with compound, resazurin; concentration not given. Here is the method:
as §1, §2, §3, §4, §5, §6, §7

Data set [3] relates to SK-MEL-25. The following applies: SK-MEL-25 melanoma cells, 24 hours with compound, resazurin; concentration not given. The protocol: as §1, §2, §3, §4, §5, §6, §7

Structures are written as SMILES.

Take `Cc1nc2c(s1)C1=CC[C@H]3[C@@H]4CC[C@H](O)[C@@]4(C)CC[C@@H]3[C@@]1(C)CC2` [III.1, (1S,2R,13R,14S,17S,18S)-2,7,18-trimethyl-8-thia-6-azapentacyclo[11.7.0.02,10.05,9.014,18]icosa-5(9),6,10-trien-17-ol]: in data set [1], the “SK-MEL-28 (% viability)” value stood at 58%.

Take `C[C@]12CC[C@H]3[C@@H](CC=C4c5sc(-c6ccccn6)nc5CC[C@@]43C)[C@@H]1CC[C@@H]2O` [III.4, (1S,2R,13R,14S,17S,18S)-2,18-dimethyl-7-(2-pyridyl)-8-thia-6-azapentacyclo[11.7.0.02,10.05,9.014,18]icosa-5(9),6,10-trien-17-ol]: the “SK-MEL-28 (% viability)” value in data set [1] turned out to be 86%.

Take `C[C@]12CC[C@H]3[C@@H](CC=C4c5sc(-c6ccccc6O)nc5CC[C@@]43C)[C@@H]1CC[C@@H]2O` [III.6, (1S,2R,13R,14S,17S,18S)-7-(2-hydroxyphenyl)-2,18-dimethyl-8-thia-6-azapentacyclo[11.7.0.02,10.05,9.014,18]icosa-5(9),6,10-trien-17-ol]: the “SK-MEL-28 (% viability)” value in data set [1] was determined as 32%.

Regarding `C[C@]12CC[C@H]3[C@@H](CC=C4c5sc(-c6ccc(O)c(O)c6)nc5CC[C@@]43C)[C@@H]1CC[C@@H]2O` [III.7, 4-[(1S,2R,13R,14S,17S,18S)-17-hydroxy-2,18-dimethyl-8-thia-6-azapentacyclo[11.7.0.02,10.05,9.014,18]icosa-5(9),6,10-trien-7-yl]benzene-1,2-diol], the “SK-MEL-28 (% viability)” value in data set [1] worked out at 11%.

Regarding `C[C@]12CC[C@H]3[C@@H](CC=C4c5sc(-c6ccc(Br)cc6)nc5CC[C@@]43C)[C@@H]1CC[C@@H]2O` [III.19, (1S,2R,13R,14S,17S,18S)-7-(4-bromophenyl)-2,18-dimethyl-8-thia-6-azapentacyclo[11.7.0.02,10.05,9.014,18]icosa-5(9),6,10-trien-17-ol], in data set [1], the “SK-MEL-28 (% viability)” value was found to be 58%.

Consider `C[C@]12CCc3sc(N)nc3C1=CC[C@@H]1[C@@H]2CC[C@]2(C)C(=O)CC[C@@H]12` [IIa.1, (1S,2R,13R,14S,18S)-7-amino-2,18-dimethyl-6-thia-8-azapentacyclo[11.7.0.02,10.05,9.014,18]icosa-5(9),7,10-trien-17-one], for which, in data set [1], the “SK-MEL-28 (% inhibition)” value is reported as 1%. Further, the “SK-MEL-5 (% inhibition)” value in data set [2] is 29%.

`C=CCNc1nc2c(s1)CC[C@@]1(C)C2=CC[C@@H]2[C@@H]1CC[C@]1(C)C(=O)CC[C@@H]21` [IIa.3, (1S,2R,13R,14S,18S)-7-(allylamino)-2,18-dimethyl-6-thia-8-azapentacyclo[11.7.0.02,10.05,9.014,18]icosa-5(9),7,10-trien-17-one]: in data set [3], the “SK-MEL-25 (% inhibition)” value is reported as 68%. Also, in data set [1], the “SK-MEL-28 (% inhibition)” value came out at 65%. The “SK-MEL-5 (% inhibition)” value in data set [2] was found to be 57%.

Consider `C[C@]12CCc3sc(NCCCN4CCOCC4)nc3C1=CC[C@@H]1[C@@H]2CC[C@]2(C)C(=O)CC[C@@H]12` [IIa.4, (1S,2R,13R,14S,18S)-2,18-dimethyl-7-(3-morpholinopropylamino)-6-thia-8-azapentacyclo[11.7.0.02,10.05,9.014,18]icosa-5(9),7,10-trien-17-one], for which, in data set [3], the “SK-MEL-25 (% inhibition)” value is 66%. For the same compound, the “SK-MEL-5 (% inhibition)” value in data set [2] worked out at 74%.

Consider `C[C@]12CCc3sc(NCc4ccccc4)nc3C1=CC[C@@H]1[C@@H]2CC[C@]2(C)C(=O)CC[C@@H]12` [IIa.5, (1S,2R,13R,14S,18S)-7-(benzylamino)-2,18-dimethyl-6-thia-8-azapentacyclo[11.7.0.02,10.05,9.014,18]icosa-5(9),7,10-trien-17-one], for which, in data set [3], the “SK-MEL-25 (% inhibition)” value is reported as 6%. Besides, in data set [1], the “SK-MEL-28 (% inhibition)” value is 97%. Further, the “SK-MEL-5 (% inhibition)” value in data set [2] was found to be 46%.

Turning to `C[C@]12CCc3sc(Nc4ccccc4)nc3C1=CC[C@@H]1[C@@H]2CC[C@]2(C)C(=O)CC[C@@H]12` [IIa.7, (1S,2R,13R,14S,18S)-7-anilino-2,18-dimethyl-6-thia-8-azapentacyclo[11.7.0.02,10.05,9.014,18]icosa-5(9),7,10-trien-17-one], the “SK-MEL-28 (% inhibition)” value in data set [1] is reported as 43%.

Consider `C[C@]12CCc3nc(Nc4ccc(F)cc4)sc3C1=CC[C@@H]1[C@@H]2CC[C@]2(C)C(=O)CC[C@@H]12` [IIa.9, (1S,2R,13R,14S,18S)-7-(4-fluoroanilino)-2,18-dimethyl-8-thia-6-azapentacyclo[11.7.0.02,10.05,9.014,18]icosa-5(9),6,10-trien-17-one], for which, in data set [3], the “SK-MEL-25 (% inhibition)” value amounted to 61%. For the same compound, the “SK-MEL-28 (% inhibition)” value in data set [1] is recorded as 90%. Also, the “SK-MEL-5 (% inhibition)” value in data set [2] is 58%.

As for `C[C@]12CCc3sc(Nc4ccccc4[N+](=O)[O-])nc3C1=CC[C@@H]1[C@@H]2CC[C@]2(C)C(=O)CC[C@@H]12` [IIa.13, (1S,2R,13R,14S,18S)-2,18-dimethyl-7-(2-nitroanilino)-6-thia-8-azapentacyclo[11.7.0.02,10.05,9.014,18]icosa-5(9),7,10-trien-17-one], in data set [3], the “SK-MEL-25 (% inhibition)” value was 58%. For the same compound, the “SK-MEL-28 (% inhibition)” value in data set [1] amounted to 6%. Further, the “SK-MEL-5 (% inhibition)” value in data set [2] is 36%.

For `COc1ccccc1Nc1nc2c(s1)CC[C@@]1(C)C2=CC[C@@H]2[C@@H]1CC[C@]1(C)C(=O)CC[C@@H]21` [IIa.15, (1S,2R,13R,14S,18S)-7-(2-methoxyanilino)-2,18-dimethyl-6-thia-8-azapentacyclo[11.7.0.02,10.05,9.014,18]icosa-5(9),7,10-trien-17-one], in data set [3], the “SK-MEL-25 (% inhibition)” value was determined as 67%. The “SK-MEL-28 (% inhibition)” value in data set [1] is on record as 13%. Further, in data set [2], the “SK-MEL-5 (% inhibition)” value is 76%.

`COc1ccc(OC)c(Nc2nc3c(s2)CC[C@@]2(C)C3=CC[C@@H]3[C@@H]2CC[C@]2(C)C(=O)CC[C@@H]32)c1` [IIa.16, (1S,2R,13R,14S,18S)-7-(2,5-dimethoxyanilino)-2,18-dimethyl-6-thia-8-azapentacyclo[11.7.0.02,10.05,9.014,18]icosa-5(9),7,10-trien-17-one]: the “SK-MEL-25 (% inhibition)” value in data set [3] is listed as 70%. The “SK-MEL-28 (% inhibition)” value in data set [1] is on record as 86%. The “SK-MEL-5 (% inhibition)” value in data set [2] stood at 81%.

As to `COc1ccc(Cl)cc1Nc1nc2c(s1)CC[C@@]1(C)C2=CC[C@@H]2[C@@H]1CC[C@]1(C)C(=O)CC[C@@H]21` [IIa.20, (1S,2R,13R,14S,18S)-7-(5-chloro-2-methoxy-anilino)-2,18-dimethyl-6-thia-8-azapentacyclo[11.7.0.02,10.05,9.014,18]icosa-5(9),7,10-trien-17-one], the “SK-MEL-25 (% inhibition)” value in data set [3] was 83%. Also, the “SK-MEL-28 (% inhibition)” value in data set [1] was 95%. Moreover, the “SK-MEL-5 (% inhibition)” value in data set [2] is reported as 70%.

Turning to `C[C@]12CCc3sc(Nc4ccccn4)nc3C1=CC[C@@H]1[C@@H]2CC[C@]2(C)C(=O)CC[C@@H]12` [IIa.21, (1S,2R,13R,14S,18S)-2,18-dimethyl-7-(2-pyridylamino)-6-thia-8-azapentacyclo[11.7.0.02,10.05,9.014,18]icosa-5(9),7,10-trien-17-one], in data set [3], the “SK-MEL-25 (% inhibition)” value is on record as 58%. Also, the “SK-MEL-28 (% inhibition)” value in data set [1] is recorded as 93%. For the same compound, the “SK-MEL-5 (% inhibition)” value in data set [2] was found to be 88%.

For the compound `C[C@]12CCc3sc(Nc4ncccn4)nc3C1=CC[C@@H]1[C@@H]2CC[C@]2(C)C(=O)CC[C@@H]12` [IIa.22, (1S,2R,13R,14S,18S)-2,18-dimethyl-7-(pyrimidin-2-ylamino)-6-thia-8-azapentacyclo[11.7.0.02,10.05,9.014,18]icosa-5(9),7,10-trien-17-one], the “SK-MEL-25 (% inhibition)” value in data set [3] worked out at 3%. Moreover, in data set [1], the “SK-MEL-28 (% inhibition)” value turned out to be 4%. In data set [2], the “SK-MEL-5 (% inhibition)” value came out at 15%.

Source of the values: patent US20250296953A1, “3,4-THIAZOLO-STEROIDS AND METHODS OF MAKING AND USING THE SAME” (Arkansas State University - Jonesboro, priority 2018, published 2025).
